In one series the test system is mRNA luciferase template. Nature of the series: Rabbit Reticulocyte Lysate Translation System, luciferase mRNA translation (Western blot). In kind it is biochemical. Conditions: same test, CoCyclen data not provided. How it is done:
CoHex is capable of preventing translation of a messenger RNA (mRNA) in vitro. The ability Co(NH3)6 to inhibit translation of an mRNA luciferase template was assessed using the Rabbit Reticulocyte Lysate Translation System (Promega) according to the manufacturer's instructions. In the example discussed below, Co(NH3)6 in various concentrations was incubated with the […] for 10 minutes before the addition of the mRNA template to the translation lysate. Translated luciferase protein was run on a 10% SDSPAGE gel for 45 min at 130 V and detected by Western blot on a PVDF membrane. Proteins were detected using a streptavidinalkaline phosphatase conjugate and Western Blue substrate according to the instructions in the Transcend Non-Radioactive Translation Detection System (Promega). In FIG. 2, Lane 1 represents the incubation of 0.01 mM Co(NH3)6. Lane 2 represents the incubation of 0.02 mM Co(NH3)6. Lane 3 represents the incubation of 0.05 mM Co(NH3)6. Lane 4 represents the incubation of 0.1 mM Co(NH3)6. Lane 5 represents the incubation of 0.2 mM Co(NH3)6. Lane 6 is a positive control in which no Co(NH3)6 is added. Lane 7 is a negative control in which no translation occurs. The lanes marked M are molecular weight marker lanes. […]

The test system of series [1] is Sindbis virus. Nature of the series: Sindbis virus plaque formation assay in BHK cells. It is filed as cell-based, Sindbis virus (633-EGFP strain). As to conditions: 48 hours.
Series [2] concerns Sindbis virus. Nature of the series: Log(PFU) per percent cell survival, plaque counts combined with CellTiter96 survival of infected BHK cells. In kind it is cell-based. As to conditions: with increase in concentration, FIG. 4. An excerpt: Because live cell counts will decrease with increasing CoHex complex due to cytotoxicity of the cells and virus replication, but increase due to the anti-viral protection of CoHex, the plaque counts may have decreased due to the fact that there were less live cells available to count. […] The data of FIG. 3C was obtained using the CellTiter96 cell proliferation assay described above for the CoHex cytotoxicity data (i.e., with respect to FIG. 1) in which the cells were further infected with 5 plaque forming units per cell of Sindbis virus in DMEM containing 2% FBS in the absence or presence of various concentrations of Co(NH3)6, then assayed periodically.
Therefore, the fraction cell survival data of FIG. 3C was combined with the log pfu data of FIG. 3A to generate a ratio, Log(PFU) per percent cell survival, which although not a physical measure, is a general model of viruses in surviving cells.

The next series has as its system Adenovirus. Nature of the series: Flow cytometry propidium iodide viability of Adenovirus-infected A549 cells. In kind it is cell-based. Conditions: 6 hour pretreatment, 48 hours post infection, increasing concentration up to 0.0621 mM. The source says:
Another example of antiviral activity is an in vitro model of a double stranded DNA (dsDNA) virus infection, Adenovirus. […] The same flow cytometry procedure discussed above for Sindbis viral infection in BHK cells was used for Adenovirus viral infection in A549 cells.
In general terms: A flow cytometer gives signals particle by particle.

The subject of series [3] is Sindbis virus.
Description: In these assays, Sindbis virus replication was assessed by monitoring viral structural protein synthesis using a recombinant Sindbis virus construct. In this construct, the gene encoding enhanced green fluorescent protein (EGFP) was placed under the control of the same promoter sequence that drives transcription of viral structural proteins. Thus, upon Sindbis virus replication, virally infected cells produce intracellular EGFP at levels that are proportional to the level of viral structural proteins.
BHK cells (1×10^5) were plated into the wells of 24-well plates in 1 mL of complete media and incubated with increasing concentrations of Co(NH3)6 for 6 hours prior to infection with Sindbis virus at a multiplicity of infection (moi) of 5 pfu per cell. The infection was allowed to proceed for 48 hours. In preparation for analysis by flow cytometry, cells from each well were removed and pelleted, washed with PBS, and resuspended in 500 μL of PBS. One half of each sample was analyzed directly to determine the percentage of EGFP-positive cells (percent infected cells). The other half of each sample was incubated with 5 μM propidium iodide for 1 minute prior to the determination of the percentage of non-viable cells. In all cases, analysis was performed on 1×10^4 cells.
BHK cells were pretreated with Co(NH3)6 for 6 hours prior to infection with Sindbis virus. After 48 hours post infection, both the percentage of Sindbis-infected cells (as evidenced by EGFP fluorescence) and the percentage of viable cells (as determined by the exclusion of propidium iodide (PI)) were determined as a function of Co(NH3)6 concentrations.
The subject of series [4] is baby hamster kidney (BHK) cells. Nature of the series: Cytotoxicity, CellTiter96 Proliferation Assay on BHK cells. It is filed as cell-based. How it is done:
The cytotoxicity of Co(NH3)6 (Structure IV) was assessed by monitoring its ability to inhibit proliferation of baby hamster kidney (BHK) cells. BHK cells were cultured as exponentially growing subconfluent monolayers in complete growth medium, particularly Dulbecco's Modified Eagle's Medium (DMEM) supplemented with 1% (v/v) antibiotic/antimycotic agent and 10% (v/v) heat inactivated fetal bovine serum (FBS). Cells were grown in either T25 or T75 flasks (Acton, Mass.) and incubated at 37° C. under 5% CO2 atmosphere. A subculture was performed every 3-4 days.
The in vitro toxicity of Co(NH3)6 was determined using the CellTiter96® Proliferation Assay (Promega, Madison, Wis.). This quantitative calorimetric assay is based upon the enzymatic conversion of a tetrazolium salt substrate into a blue formazan product with a maximum absorbance at 570 nm. […] At the assay endpoint, the absorbance at 570 nm is directly proportional to the number of viable cells. To assess compound toxicity, BHK cells were seeded into the wells of a 96-well tissue culture microtiter plate (2×10^4 cells/well) and cultured overnight at 37° C. in a humidified atmosphere containing 5% CO2. The next day, Co(NH3)6 was diluted into tissue culture media (at final concentrations ranging from 0 to 5 mM) and incubated with the cells for 72 hrs. Triplicate wells were included for each concentration. To control for any contaminating absorbance due to the compounds, control wells containing no cells were included at each compound concentration (“no cell” wells). At the end of the 72 hour culture period, 15 μL of tetrazolium substrate was added to each well and the plate was returned to the incubator for 4 hours to allow viable cells to convert the substrate into the formazan product. At the end of the 4 hour incubation period, 100 μL of solubilization solution was added to each well and the plate was subsequently incubated overnight to completely solubilize the contents of each well to a homogeneous color. The absorbance within each of the “no cell” wells was subtracted from the absorbance measured in the corresponding wells containing cells for each concentration of Co(NH3)6.

Series [5] is described as follows: Ligand exchange with free histidine by UV-VIS and NMR. It is filed as physicochemical. Conditions: ratio 100:1 histidine to Co(NH3)6, results not shown.

Where two headings read alike, the source gives them in different places.

The IC50 is the concentration needed to halve the response being measured. For the substance Co(NH3)6, in the series on mRNA luciferase template, the “inhibition of protein translation relative to conventional CoCyclen structure” value is recorded as “about 10 times”. Further, the IC50 with Sindbis virus [1] (BHK cells, read-out: IC50, inhibition of Sindbis virus plaque formation) was approximately 100 µM; with Sindbis virus [3] (read-out: IC50, inhibition of EGFP expression, 6 hours pretreatment, 48 hours post infection, moi 5), 130 ± 40 µM. Moreover, the “maximal inhibition of virus replication, decrease in pfu over control” value with Sindbis virus [1] (at about 2.5 mM) was “about 2.5 log”. In the series with Sindbis virus [2], the “Log(PFU) per percent cell survival” value is given as “significant decrease in viral infection”. In addition, in the series on Adenovirus, the “survival rate of Adenovirus-infected A549 cells” value was “increase in survival rate”. The “selectivity ratio CC50/IC50” value with Sindbis virus [3] (Sindbis virus over BHK cells) is “about 25”. Moreover, in the series on Sindbis virus [3] (at 0.15 mM), the “percentage of EGFP-positive (Sindbis-infected) cells” value is recorded as “distinct decrease”. Further, in the series on Sindbis virus [3] (pretreatment, co-infection or early post-treatment), the “effect of timing of administration on inhibition of EGFP expression” value is reported as “equally effective”. In addition, the cell viability result in series [4] (72 hrs, at 2.5 mM) is given as “about 80%”. In addition, the CC50 in series [4] (72 hrs, from FIG. 1, read-out: 50% cytotoxicity concentration (CC50)) was approximately 3200 µM. Moreover, in series [4] (FIG. 1), the “toxicity compared with cis-Platin” value is “much less toxic”. The “toxicity (inhibition of cellular proliferation)” value in series [4] (concentrations below 0.3 mM) is reported as “no significant toxicity”; in series [4] (concentrations below 2.5 mM) it was “only mildly toxic”. Moreover, in series [4] (highest concentration tested), the “concentration of maximum toxicity” value came out at 5000 µM. In series [5], the “exchange of ammonia groups with free histidine” value is given as “does not appear to have labile ligands”.

Source of the values: patent US20080182835A1 (priority 2006, published 2008).
